# Laboratory results published in patent publication US20070094743A1, “ABCG1/ABCG4-related methods and compositions” (priority 2005, published 2007).
# Key:
# ABCG1 mRNA = ABCG1 mRNA levels normalized against β-actin mRNA, Taqman real-time RT-PCR, in mouse macrophages; format: cell-based; settings: 2 μM, data not shown
# Method: (§1) Where indicated, RNA oligonucleotides targeting both sequences were mixed and used to down-regulate ABCG1 or ABCG4 gene expression. The scrambled control RNA oligonucleotides also were obtained from Dharmacon. An independent set of siRNA targeting ABCG1 (5′[…]3′) or ABCG4 (5′[…]3′) was obtained from Qiagen and used where indicated. For cholesterol efflux assays, mouse peritoneal macrophages were plated in 24- or 48-well plates and cultured in 10% fetal bovine serum and DMEM media at 37° C. for 24 hours. Cells were then transfected with siRNA and LipofectAMINE 2000 at the indicated concentration and labeled with isotopic cholesterol (2 μCi/ml [^3H]cholesterol in 1% fetal bovine serum) in the presence or absence of TO901317 (2 μM) for 48 hours. Cells were washed twice and equilibrated for 30 minutes for the third wash, and then HDL or other acceptors were added for the indicated period. Levels of ABCG1 and ABCG4 mRNAs normalized against β-actin mRNA were determined using Taqman real-time quantititative RT-PCR. The primers and probes were from Applied Biosystems.
# ABCG4 mRNA = ABCG4 mRNA levels normalized against β-actin mRNA, Taqman real-time RT-PCR, in mouse macrophages; format: cell-based; settings: 2 μM, data not shown
# Method: as §1
smiles,measurement,setting,value
O=S(=O)(c1ccccc1)N(CC(F)(F)F)c1ccc(C(O)(C(F)(F)F)C(F)(F)F)cc1 [T0901317],increase of mRNA levels of ABCG1,ABCG1 mRNA,3 fold
same,increase of mRNA levels of ABCG4,ABCG4 mRNA,2 fold
